Assay results: patent publication US20230312550A1, “N-(2-(4-CYANOTHIAZOLIDIN-3-YL)-2-OXOETHYL)-QUINOLINE-4-CARBOXAMIDES” (AstraZeneca AB, priority 2020, published 2023)
Values after ≈ are worked out from the molar mass of the structure shown. Blank lines part the entries; values can stand above or below the molecule they belong to.

What was measured:
[1] = target: human Fibroblast activation protein alpha (hFAP) (Homo sapiens (Human), UniProt Q12884); experiment: hFAP inhibition assay (tight binders); assay type: biochemical; settings: Ala-Pro-AMC 20 μM, n = 1 or geometric mean n = 2-6; note: hFAP 2.4 pM
Experimental: The plates were read on a PHERAstar® reader with excitation 340 nm and emission 460 nm. Data were analyzed in Genedata Screener®. IC50 values were determined by plotting % inhibition versus log compound concentration and using a one site dose response model.

[2] = Metabolic stability in human liver microsomes (HLM); settings: human
Experimental: Metabolic stability in HLM was measured as described in J Comput Aided Mol Des 2015, 29, 795.

[3] = target: Prolyl endopeptidase, Prolyl Oligopeptidase (hPREP) (Homo sapiens (Human), UniProt P48147); experiment: hPrep inhibition assay; assay type: biochemical; settings: hPREP 0.6 nM, Z-Gly-Pro-amino-methylcoumarin 50 μM; read-out: PREP IC50
Summary of the method: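 Recombinant human PREP at 0.6 nM final with Z-Gly-Pro-AMC substrate at 50 μM final in Tris-HCl pH 7.5, NaCl, Triton X-100, glutathione; 15 min rt preincubation then 20 min rt reaction in dark. AMC fluorescence (ex 340/em 460 nm); IC50 from one-site dose-response fit of % inhibition.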

[4] = Metabolic stability in rat hepatocytes (rHep); settings: n = 1 or geometric mean of n = 2-3
[5] = Kinetic solubility; settings: kinetic from dmso stock
Experimental: Kinetic solubility was measured as described in Comput Aided Mol Des 2015, 29, 795.

[6] = target: FAP (Homo sapiens (Human), UniProt Q12884); experiment: hFAP inhibition assay; assay type: biochemical; settings: hFAP […], Ala-Pro-AMC 20 μM; n = 1 or geometric mean n = 2-3
Experimental: 384 low volume black plates (Greiner #784076) were used. 4 μL, 0.48 nM enzyme solution (100 mM Tris HCl, 100 mM NaCl, 0.05% Chaps, pH 7.4) was added to 40 nL compounds (in DMSO) at 10 CR, 3 fold dilution series from 50 μM FAC. Plates were incubated for 15 min at rt in dark. 4 μL, 40 μM substrate solution (100 mM Tris HCl, 100 mM NaCl, 0.05% Chaps, pH 7.4) was added to each well. Plates were centrifuged at 1000 rpm and incubated for 30 min at rt in dark. The plates were read on a PHERAstar® reader with excitation 340 nm and emission 460 nm. Data were analyzed in Genedata Screener®. IC50 values were determined by plotting % inhibition versus log compound concentration and using a one site dose response model.

[7] = target: hFAP (M39-A757) (Homo sapiens (Human), UniProt Q12884); experiment: hFAP binding assay (surface plasmon resonance); settings: SPR, 20° C.; for hFAP Binding assay k(off) / hFAP Binding assay k(on): single cycle kinetics; for Kd: n = 1 or geometric mean n = 2-4
Experimental: Compounds were tested in a direct binding assay using 8K surface plasmon resonance biosensor (GE Healthcare) at 20° C. Immobilization of hFAP (M39-A757) on a CMD200M sensor chip (Xantec) was performed using standard amine coupling procedure in immobilization buffer (10 mM HEPES, 150 mM NaCl, 0.05% Tween20, pH 7.4). The surface was washed with 10 mM NaOH, 1M NaCl before being activated with EDC/NHS (GE Healthcare), followed by immobilization of hFAP (in 10 mM Acetate pH 5.0). Finally, the surface was deactivated by ethanolamine. Immobilization levels of hFAP were around 4000-6000 RU. The reference spot was treated as described, omitting the injection of hFAP. Compound concentration series were injected over the immobilized protein in increasing concentrations (2-500 nM) using single cycle kinetics in running buffer (20 mM TRIS, 150 mM NaCl, 0.05% Tween20, 1% DMSO, pH 7.4). Interaction models were fitted globally to the experimental traces, enabling determination of kon, koff and Kd.

[8] = HLM CLint, n = 1 or average of n = 2-3
[9] = Solubility, kinetic solubility, n = 1 or average of n = 2-3

hFAP (M39-A757), sequence (Q12884 39-757): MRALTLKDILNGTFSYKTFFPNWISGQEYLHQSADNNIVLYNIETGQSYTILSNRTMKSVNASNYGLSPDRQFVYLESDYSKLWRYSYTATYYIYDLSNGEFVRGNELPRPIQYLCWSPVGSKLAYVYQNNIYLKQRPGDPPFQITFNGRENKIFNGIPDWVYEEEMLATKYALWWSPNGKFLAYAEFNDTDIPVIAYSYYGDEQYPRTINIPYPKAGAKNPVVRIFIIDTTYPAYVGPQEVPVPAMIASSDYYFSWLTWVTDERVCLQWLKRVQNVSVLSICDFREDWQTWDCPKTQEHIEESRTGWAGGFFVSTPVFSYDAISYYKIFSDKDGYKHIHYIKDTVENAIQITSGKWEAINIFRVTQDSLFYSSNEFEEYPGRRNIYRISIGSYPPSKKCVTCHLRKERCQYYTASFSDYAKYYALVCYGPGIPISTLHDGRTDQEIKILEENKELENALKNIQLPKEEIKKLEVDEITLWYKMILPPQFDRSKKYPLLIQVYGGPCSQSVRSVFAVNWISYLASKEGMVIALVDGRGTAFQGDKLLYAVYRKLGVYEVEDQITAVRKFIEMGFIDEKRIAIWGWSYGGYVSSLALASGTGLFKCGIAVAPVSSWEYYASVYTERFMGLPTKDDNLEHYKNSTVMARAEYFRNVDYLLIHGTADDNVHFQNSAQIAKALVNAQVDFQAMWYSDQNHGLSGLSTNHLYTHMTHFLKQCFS
Prolyl endopeptidase, Prolyl Oligopeptidase (hPREP), sequence (P48147 whole entry): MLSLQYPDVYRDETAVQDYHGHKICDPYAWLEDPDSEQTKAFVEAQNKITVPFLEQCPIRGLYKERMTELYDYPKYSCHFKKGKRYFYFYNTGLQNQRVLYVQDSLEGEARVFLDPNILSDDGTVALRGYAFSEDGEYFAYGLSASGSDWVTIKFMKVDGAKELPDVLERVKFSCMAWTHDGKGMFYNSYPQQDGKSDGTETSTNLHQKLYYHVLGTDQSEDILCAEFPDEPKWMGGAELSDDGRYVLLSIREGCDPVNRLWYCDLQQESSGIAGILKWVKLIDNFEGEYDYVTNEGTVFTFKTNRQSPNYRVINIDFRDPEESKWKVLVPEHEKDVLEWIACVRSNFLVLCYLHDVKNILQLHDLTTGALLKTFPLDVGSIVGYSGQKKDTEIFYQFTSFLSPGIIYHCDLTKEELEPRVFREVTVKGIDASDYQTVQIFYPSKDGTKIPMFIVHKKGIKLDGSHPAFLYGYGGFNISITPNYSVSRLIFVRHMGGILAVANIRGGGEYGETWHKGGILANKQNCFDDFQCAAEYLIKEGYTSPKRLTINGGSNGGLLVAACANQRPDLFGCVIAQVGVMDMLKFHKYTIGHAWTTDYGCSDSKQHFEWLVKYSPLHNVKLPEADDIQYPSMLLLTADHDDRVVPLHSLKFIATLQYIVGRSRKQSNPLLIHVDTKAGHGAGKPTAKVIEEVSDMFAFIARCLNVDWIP
FAP, sequence (Q12884 38-760): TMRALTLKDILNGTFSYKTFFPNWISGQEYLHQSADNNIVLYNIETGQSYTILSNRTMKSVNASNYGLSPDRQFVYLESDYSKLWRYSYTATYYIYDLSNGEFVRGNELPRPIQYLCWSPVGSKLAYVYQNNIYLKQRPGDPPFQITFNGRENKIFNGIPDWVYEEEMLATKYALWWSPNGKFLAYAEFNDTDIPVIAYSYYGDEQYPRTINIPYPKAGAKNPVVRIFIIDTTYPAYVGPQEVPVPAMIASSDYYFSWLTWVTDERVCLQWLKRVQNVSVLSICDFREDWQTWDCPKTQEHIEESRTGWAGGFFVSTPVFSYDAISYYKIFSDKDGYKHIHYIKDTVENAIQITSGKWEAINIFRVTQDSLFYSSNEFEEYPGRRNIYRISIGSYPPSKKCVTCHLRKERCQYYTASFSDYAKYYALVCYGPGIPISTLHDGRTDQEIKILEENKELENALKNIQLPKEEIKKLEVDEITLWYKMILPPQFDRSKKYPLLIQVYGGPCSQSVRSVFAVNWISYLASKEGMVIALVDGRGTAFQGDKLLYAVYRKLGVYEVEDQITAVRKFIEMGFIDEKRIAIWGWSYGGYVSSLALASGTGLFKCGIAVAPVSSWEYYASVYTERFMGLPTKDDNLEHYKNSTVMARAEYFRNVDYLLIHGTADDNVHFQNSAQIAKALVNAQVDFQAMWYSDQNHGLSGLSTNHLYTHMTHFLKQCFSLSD
human Fibroblast activation protein alpha (hFAP), sequence (Q12884 38-760): as above

SMILES: N#C[C@@H]1CSCN1C(=O)CNC(=O)c1ccnc2ccc(N3CC(F)(C4CC4)C3)cc12 [Example 31, (R)—N-(2-(4-Cyanothiazolidin-3-yl)-2-oxoethyl)-6-(3-cyclopropyl-3-fluoroazetidin-1-yl)quinoline-4-carboxamide]
IC50 [1]: 0.1 nM
microsomal CLint [2, 8]: 45 µL/min/mg
IC50 [3]: 760 nM
rHep CLint [4]: 14 μL/min/1E6
solubility [5, 9]: 180 µM (≈ 79.1 µg/mL)
IC50 [6]: 0.22 nM
hFAP Binding assay k(off) [7]: 0.00024 s⁻¹
hFAP Binding assay k(on) [7]: 9700000 M⁻¹ s⁻¹
Kd [7]: 0.031 nM

SMILES: CC1(F)CCN(c2ccc3nccc(C(=O)NCC(=O)N4CSC[C@H]4C#N)c3c2)CC1 [Example 34, (R)—N-(2-(4-Cyanothiazolidin-3-yl)-2-oxoethyl)-6-(4-fluoro-4-methyl-piperidin-1-yl)quinoline-4-carboxamide]
IC50 [1]: 0.22 nM
microsomal CLint [2, 8]: 38 µL/min/mg
IC50 [3]: 430 nM
rHep CLint [4]: 33 μL/min/1E6
solubility [5, 9]: 770 µM (≈ 340 µg/mL)
IC50 [6]: 0.27 nM
hFAP Binding assay k(off) [7]: 0.000082 s⁻¹
hFAP Binding assay k(on) [7]: 2200000 M⁻¹ s⁻¹
Kd [7]: 0.057 nM

SMILES: N#C[C@@H]1CSCN1C(=O)CNC(=O)c1ccnc2ccc(N3CCC(F)(F)CC3)cc12 [Example 35, (R)—N-(2-(4-Cyanothiazolidin-3-yl)-2-oxoethyl)-6-(4,4-difluoropiperidin-1-yl)quinoline-4-carboxamide]
IC50 [1]: 0.17 nM
microsomal CLint [2, 8]: 63 µL/min/mg
IC50 [3]: 1700 nM
rHep CLint [4]: 64 μL/min/1E6
solubility [5, 9]: 600 µM (≈ 267 µg/mL)
IC50 [6]: 0.47 nM
hFAP Binding assay k(off) [7]: 0.00010 s⁻¹
hFAP Binding assay k(on) [7]: 900000 M⁻¹ s⁻¹
Kd [7]: 0.1 nM

SMILES: N#C[C@@H]1CSCN1C(=O)CNC(=O)c1ccnc2ccc(N3CCCC4(CC4)C3)cc12 [Example 46, (R)—N-(2-(4-Cyanothiazolidin-3-yl)-2-oxoethyl)-6-(5-azaspiro[2.5]octan-5-yl)quinoline-4-carboxamide]
IC50 [1]: 0.082 nM
microsomal CLint [2]: 190 µL/min/mg
IC50 [3]: 110 nM
rHep CLint [4]: 72 μL/min/1E6
solubility [5]: 190 µM (≈ 82.8 µg/mL)
IC50 [6]: 0.29 nM
hFAP Binding assay k(off) [7]: 0.000062 s⁻¹
hFAP Binding assay k(on) [7]: 3000000 M⁻¹ s⁻¹
Kd [7]: 0.02 nM

SMILES: N#C[C@@H]1CSCN1C(=O)CNC(=O)c1ccnc2ccc(N3CCC4(CC4)C3)cc12 [Example 49, (R)—N-(2-(4-Cyanothiazolidin-3-yl)-2-oxoethyl)-6-(5-azaspiro[2.4]heptan-5-yl)quinoline-4-carboxamide]
IC50 [1]: 0.041 nM
microsomal CLint [2]: 58 µL/min/mg
IC50 [3]: 340 nM
rHep CLint [4]: 48 μL/min/1E6
solubility [5]: 13 µM (≈ 5.48 µg/mL)
IC50 [6]: 0.19 nM
hFAP Binding assay k(off) [7]: 0.00017 s⁻¹
hFAP Binding assay k(on) [7]: 8800000 M⁻¹ s⁻¹
Kd [7]: 0.02 nM

More lines, now with the values ahead:

IC50 [1]: 0.084 nM
microsomal CLint [2, 8]: 48 µL/min/mg
IC50 [3]: 400 nM
rHep CLint [4]: 19 μL/min/1E6
solubility [5, 9]: < 98 µM
IC50 [6]: 0.24 nM
hFAP Binding assay k(off) [7]: 0.000090 s⁻¹
hFAP Binding assay k(on) [7]: 3000000 M⁻¹ s⁻¹
Kd [7]: 0.053 nM
SMILES: N#C[C@@H]1CSCN1C(=O)CNC(=O)c1ccnc2ccc(N3CCCC(F)(F)C3)cc12 [Example 36, (R)—N-(2-(4-Cyanothiazolidin-3-yl)-2-oxoethyl)-6-(3,3-difluoropiperidin-1-yl)quinoline-4-carboxamide]

IC50 [1]: 0.19 nM
microsomal CLint [2, 8]: 66 µL/min/mg
IC50 [3]: 270 nM
rHep CLint [4]: 30 μL/min/1E6
solubility [5, 9]: 210 µM (≈ 95.7 µg/mL)
IC50 [6]: 0.22 nM
hFAP Binding assay k(off) [7]: 0.000030 s⁻¹
hFAP Binding assay k(on) [7]: 1000000 M⁻¹ s⁻¹
Kd [7]: 0.028 nM
SMILES: CC1(CF)CCN(c2ccc3nccc(C(=O)NCC(=O)N4CSC[C@H]4C#N)c3c2)CC1 [Example 37, (R)—N-(2-(4-Cyanothiazolidin-3-yl)-2-oxoethyl)-6-(4-(fluoromethyl)-4-methylpiperidin-1-yl)quinoline-4-carboxamide]

IC50 [1]: 0.1 nM
microsomal CLint [2, 8]: 120 µL/min/mg
IC50 [3]: 500 nM
rHep CLint [4]: 31 μL/min/1E6
solubility [5, 9]: 22 µM (≈ 10.5 µg/mL)
IC50 [6]: 0.28 nM
hFAP Binding assay k(off) [7]: 0.00016 s⁻¹
hFAP Binding assay k(on) [7]: 4900000 M⁻¹ s⁻¹
Kd [7]: 0.04 nM
SMILES: N#C[C@@H]1CSCN1C(=O)CNC(=O)c1ccnc2ccc(N3CCC(C(F)(F)F)CC3)cc12 [Example 39, (R)—N-(2-(4-Cyanothiazolidin-3-yl)-2-oxoethyl)-6-(4-(trifluoromethyl)-piperidin-1-yl)quinoline-4-carboxamide]

IC50 [1]: 0.14 nM
microsomal CLint [2, 8]: 260 µL/min/mg
IC50 [3]: 190 nM
rHep CLint [4]: 160 μL/min/1E6
solubility [5, 9]: 340 µM (≈ 150 µg/mL)
IC50 [6]: 0.2 nM
hFAP Binding assay k(off) [7]: 0.00018 s⁻¹
hFAP Binding assay k(on) [7]: 5400000 M⁻¹ s⁻¹
Kd [7]: 0.048 nM
SMILES: N#C[C@@H]1CSCN1C(=O)CNC(=O)c1ccnc2ccc(N3CCCC[C@H]3CF)cc12 [Example 45, N-(2-((R)-4-Cyanothiazolidin-3-yl)-2-oxoethyl)-6-((S)-2-(fluoromethyl)-piperidin-1-yl)quinoline-4-carboxamide]

IC50 [1]: 0.11 nM
microsomal CLint [2, 8]: 89 µL/min/mg
IC50 [3]: 170 nM
rHep CLint [4]: 51 μL/min/1E6
solubility [5, 9]: 18 µM (≈ 7.62 µg/mL)
IC50 [6]: 0.29 nM
hFAP Binding assay k(off) [7]: 0.000089 s⁻¹
hFAP Binding assay k(on) [7]: 1400000 M⁻¹ s⁻¹
Kd [7]: 0.067 nM
SMILES: CC1(C)CCN(c2ccc3nccc(C(=O)NCC(=O)N4CSC[C@H]4C#N)c3c2)C1 [Example 48, (R)—N-(2-(4-Cyanothiazolidin-3-yl)-2-oxoethyl)-6-(3,3-dimethylpyrrolidin-1-yl)quinoline-4-carboxamide]

IC50 [1]: 0.064 nM
microsomal CLint [2, 8]: 14 µL/min/mg
IC50 [3]: 130 nM
rHep CLint [4]: 24 μL/min/1E6
solubility [5, 9]: 56 µM (≈ 23.2 µg/mL)
IC50 [6]: 0.21 nM
hFAP Binding assay k(off) [7]: 0.00011 s⁻¹
hFAP Binding assay k(on) [7]: 5600000 M⁻¹ s⁻¹
Kd [7]: 0.021 nM
SMILES: N#C[C@@H]1CSCN1C(=O)CNC(=O)c1ccnc2ccc(N3CC[C@H](F)C3)cc12 [Example 51, N-(2-((R)-4-Cyanothiazolidin-3-yl)-2-oxoethyl)-6-((S)-3-fluoropyrrolidin-1-yl)quinoline-4-carboxamide]

IC50 [1]: 0.045 nM
microsomal CLint [2, 8]: 22 µL/min/mg
IC50 [3]: 400 nM
rHep CLint [4]: 21 μL/min/1E6
solubility [5, 9]: 57 µM (≈ 23.6 µg/mL)
IC50 [6]: 0.2 nM
hFAP Binding assay k(off) [7]: 0.00019 s⁻¹
hFAP Binding assay k(on) [7]: 6800000 M⁻¹ s⁻¹
Kd [7]: 0.044 nM
SMILES: N#C[C@@H]1CSCN1C(=O)CNC(=O)c1ccnc2ccc(N3CC[C@@H](F)C3)cc12 [Example 52, N-(2-((R)-4-Cyanothiazolidin-3-yl)-2-oxoethyl)-6-((R)-3-fluoropyrrolidin-1-yl)quinoline-4-carboxamide]
